Measurements as given in US20160279108A1, “TARGETED MTOR INHIBITORS” (UNIVERSITY OF KANSAS, priority 2015, published 2016).

What was measured:
MDA-MB-468 cells [1] = settings: MDA-MB-468 with H-CAM blocking of CD44, p=0.065
Procedure: Breast cancer MDA-MB-468 cells were maintained in Dulbecco's modified eagle medium supplemented with 10% fetal bovine serum (Hyclone Laboratory Inc., Logan, Utah). Cells were plated in white 96-well flat-bottomed plates at the concentration of 5,000 cells/well in 90 μL of growth medium. […] Hanks' solution and 10% trichloroacetic acid (TCA) were used as negative and positive control, respectively. The medium was refreshed 8 h after treatment. After 72 h post-treatment, resazurin blue (5 μM) was added and the resorufin product was measured with a fluorophotometer using an excitation wavelength of 550 nm and an emission wavelength of 590 nm.

4T1.2neu breast cancer = assay: Animal survival and tumor suppression study; settings: for median survival time: 10 mg/kg equivalent rapamycin once per week for 3 weeks, free rapamycin i.p., HA-L-Rapa s.c., control 17 days
MDA-MB-468 cells [2] = settings: 10 μM
Procedure: Breast cancer cells, MDA-MB-468, were seeded in a 12-well plate at the concentration of 50,000 cells/well in 1 mL of growth medium. After 12 h incubation, 10 μL of human anti-CD44 antibody was added to each well.

[3] = Tissue distribution in tumor-bearing mice; format: in vivo, BALB/c mice; settings: for concentration at 12 h: female, BALB/c, mouse, intraperitoneal, 10 mg/kg
Procedure: Drug tissue distribution was determined in female BALB/c mice (n=5). Tissue samples (50 mg) in 500 μL PBS were homogenized using a Tissue Tearor (BioSpec Products, Inc., Bartivesville, Okla.). The homogenized tissue was mixed with 250 μL ZnSO4 and 500 μL methanol. The mixture solution was centrifuged and the supernatant was analyzed by LC/MS.
In the tissue distribution study, BLAB/c mice were administered the drugs 12 h before being euthanized. Major organs (liver, kidneys, hear, spleen, lungs, brain, muscle), tumor and lymph nodes were excised and lightly washed with PBS. The organs were stored at −80° C. until analyzed by LC/MS.

[4] = cited from earlier work
[5] = i.v., rats, own previous studies; cited from earlier work
[6] = mice, 2 mg/kg; cited from earlier work
[7] = Pharmacokinetics study in rats; format: in vivo, Sprague-Dawley rats
Procedure: Whole blood was withdrawn (100 μL) from the tail vein at 0 min, 5 min, 30 min, 1 h, 2 h, 4 h, 6 h, 12 h, 24 h and 48 h after dosing and placed in heparinized tubes (BD Vacutainer® Lithium Heparin 37 USP unit, BD Franklin Lakes, N.J.). The whole blood was centrifuged at 15,000×g for 10 min, and the plasma was frozen at −80° C. until analyzed. The animal use statement was approved by the University of Kansas Institutional Animal Care and Use Committee. Plasma samples and stander curves were prepared using a procedure reported previously.

[8] = Stak (US 20110201639 A1) for tacrolimus; cited from earlier work
[9] = in vivo; cited from earlier work
[10] = female, Sprague-Dawley, rat, plasma, ip, 10 mg/kg

For “HA-Rapamycin-42-(3′-amino-4′-methoxy)benzoate [HA-L-Rapa]”, the “cell viability compared to the free drug” value (MDA-MB-468 cells [1]) was “no significant difference”, the “tumor volume on day 20 compared with the control group” value (4T1.2neu breast cancer; 10 mg/kg equivalent rapamycin) was “significant decrease” and the median survival time (4T1.2neu breast cancer) was 22 days. The “lung metastases observed at necropsy (animals of group)” value (4T1.2neu breast cancer; 4T1.2neu model, n=5) was 1/5, the “survival compared with control” value (4T1.2neu breast cancer; BALB/c mice with 4T1.2neu breast cancer) was “significantly longer survival” and the “incidence of ulcerated tumor” value (4T1.2neu breast cancer; mammary carcinoma bearing mice) was “diminished the incidence of ulcerated tumor”. For the same molecule, the “tumor growth compared to the non-treatment group” value (4T1.2neu breast cancer; mammary carcinoma bearing mice) was “significantly inhibited tumor growth”, the “rapamycin uptake compared to the free drug” value (MDA-MB-468 cells [2]; CD44 blocked with H-CAM, p=0.13) was “no difference” and the “drug uptake compared to free rapamycin” value (MDA-MB-468 cells [2]; CD44 positive cells, p=0.012) was 3.2 times.
For `CO[C@H]1C[C@@H]2CC[C@@H](C)[C@@](O)(O2)C(=O)C(=O)N2CCCC[C@H]2C(=O)O[C@H]([C@H](C)C[C@@H]2CC[C@@H](O)[C@H](OC)C2)CC(=O)[C@H](C)/C=C(\C)[C@@H](O)[C@@H](OC)C(=O)[C@H](C)C[C@H](C)/C=C/C=C/C=C/1C` [rapamycin], the concentration at 12 h ([3]; brain) was 108 ± 37.4 ng/g, the concentration at 12 h ([3]; heart) was 441 ± 81.6 ng/g and the concentration at 12 h ([3]; kidneys) was 469 ± 27.3 ng/g. For the same molecule, the concentration at 12 h ([3]; liver) was 379 ± 40.6 ng/g, the concentration at 12 h ([3]; lungs) was 618 ± 299 ng/g and the concentration at 12 h ([3]; lymph nodes) was 705 ± 116 ng/g. It also gave a concentration at 12 h ([3]; muscle) of 316 ± 154 ng/g, a concentration at 12 h ([3]; spleen) of 183 ± 66.5 ng/g and a Mean concentration of rapamycin in Tumor ([3]; mice, 12 h post 10 mg/kg equivalent rapamycin, i.p. (free rapamycin), s.c. (HA-L-Rapa), Mean ± SD, n=5) of 1240 ± 256 ng/g. For the same molecule, the “findings after i.v. administration” value [4] was “injury (swelling and focal lesion) at the injection site, lymphoid atrophy and periarterial edema in the heart, liver”, the mortality [5] was 40% and the “skin finding after subcutaneous administration” value [6] was “skin ulceration”. It also gave an AUC(0-inf) [7, 10] of 2360 ± 460 ng·h/mL, a Cmax [7, 10] of 173 ± 69.1 ng/mL and a half-life [7, 10] of 624 ± 226 min. For the same molecule, the Vd ([7]; rats, free rapamycin i.p., HA-L-Rapa s.c., 10 mg/kg equivalent rapamycin, Mean ± SD, n=3) was 37.68 ± 15.49 L/kg, the CI ([7]; rats, free rapamycin i.p., HA-L-Rapa s.c., Mean ± SD, n=3) was 4.23 ± 0.95 L/kg/h and the “stability at alkaline pH conditions” value [8] was “degrade rapamycin rapidly in hours or less”. The median survival time (4T1.2neu breast cancer) was 15 days.
For hyaluronic acid, the turnover half-life [9] is given as 12 to 72 h.
In the case of `C=CC[C@@H]1/C=C(\C)C[C@H](C)C[C@H](OC)[C@H]2O[C@@](O)(C(=O)C(=O)N3CCCC[C@H]3C(=O)O[C@H](/C(C)=C/[C@@H]3CC[C@@H](O)[C@H](OC)C3)[C@H](C)[C@@H](O)CC1=O)[C@H](C)C[C@@H]2OC` [tacrolimus], the “stability at alkaline pH conditions” value [8] is given as “stable at alkaline pH conditions for over a week”.
